Legend:
[1] = system: KATO III cells; test: ADCC assay with human PBMC effectors, LDH release (Example 3); assay type: cell-based; conditions: E/T 25:1, 16 hours; data not shown
Protocol: (§1) MFM-223 cells were obtained from the Health Protection Agency, UK; OCUM-2M cells were obtained from Osaka City University, Osaka, Japan; and KATO III cells were obtained from ATCC, Rockville, Md. All cells were cultured using standard methods. Freshly isolated PMBC from healthy donors were obtained from AllCells, Emeryville, Calif.
(§2) ADCC assays were conducted using effector cells from 3 independent donors on 3 different days. ADCC assay testing was performed using freshly isolated human PBMCs as effector cells at an effector to target (E/T) cell ratio of 25:1. The target cells were incubated for 16 hours in the presence of effectors and increasing concentrations of antibody. The ADCC assay was validated using 2 positive control antibodies, HERCEPTIN® on SKOV-3 target cells and RITUXIN® on Raji target cells. A fully human IgG1 negative control antibody (Eureka Therapeutics, Catalog ET901, Emeryville, Calif.) was used for non-specific cell cytotoxicity. Cytotoxicity was determined by quantifying LDH release as per the manufacturer's instructions (CytoTox Non Radioactive Cytotoxicity Assay, Promega, Madison, Wis.).
(§3) Maximal lysis was determined in the presence of 5% Triton X-100, and spontaneous release was determined in the absence of antibody. Percentage of specific lysis was calculated as follows, as a percentage of maximal lysis less spontaneous release: (experimental−spontaneous release)/(maximal−spontaneous release)×100=% specific lysis

[2] = system: MFM 223 cells; test: as above; assay type: cell-based; conditions: data not shown
Protocol: as §1, §2, §3

[3] = system: OCUM-2M cells; test: as above; assay type: cell-based; conditions: data not shown
Protocol: as §1, §2, §3

[4] = system: Ba/F3 FGFR2IIIb-expressing target cells; test: ADCC assay, EC50 by curve fitting (Example 5); assay type: cell-based; conditions: FIG. 9
Protocol: (§4) Ba/F3 FGFR2IIIb-expressing target cells were generated as described before. OCUM-2M cells were obtained from Osaka City University, Osaka, Japan. All cells were cultured using standard methods. Freshly isolated PMBC from healthy donors were obtained from AllCells, Emeryville, Calif.
(§5) ADCC assays were conducted using freshly isolated human PBMCs as effector cells at an effector to target (E:T) cell ratio of 25:1. The target cells were incubated for 16 hours in the presence of effectors and increasing concentrations of antibody. All conditions were tested in triplicate. Cytotoxicity was determined by quantifying LDH release as per the manufacturer's recommendations (Promega's CytoTox Non-Radioactive Cytotoxicity Assay). For the OCUM-2M cells, maximal lysis was determined in the presence of 5% Triton X-100, and spontaneous release was determined in the absence of antibody. Percentage of specific lysis was calculated as a percentage of maximal lysis less spontaneous release, as follows: (experimental−spontaneous release)/(maximal−spontaneous release)×100=% specific lysis. GraphPad software curve-fitting analysis was used to obtain EC50 values.

[5] = system: OCUM-2M human gastric cancer xenograft with FGFR2 amplification; test: OCUM-2M gastric cancer xenograft model; assay type: in vivo, CB17 SCID mice; conditions: for tumor response: 10 mg/kg intraperitoneal twice per week
From the text: Six week old female CB17 SCID mice were purchased from Charles River Laboratories (Wilmington, Mass.) and were acclimated for 1 week before the start of the study. Human gastric carcinoma cell line OCUM-2M or breast carcinoma cell line MFM-223 were used as the tumor models. OCUM-2M was purchased from Public University Corporation Osaka City University (OCU, Osaka, Japan), and MFM-223 was purchased from Culture Collections, Public Health England (98050130, HPA Culture Collections, Salisbury, UK). The cells were cultured for up to three passages in complete growth medium to expand for implantation. OCUM-2M and MFM-223 cells were cultured in Dulbecco's […] (DMEM) and Minimum Essential Medium (MEM), respectively. All medium was supplemented with 10% heat-inactivated Fetal Bovine Serum (FBS), 2 mM L-Glutamine, and Penicillin-Streptomycin solution. Cells were grown at 37° C. in a humidified atmosphere with 5% CO2.
When the cultured cells reached 85-90% confluence, cells were harvested and resuspended in cold Ca^2+ and Mg^2+ free phosphate buffered saline (PBS) containing 50% Matrigel (BD BioSciences, San Jose, Calif.). OCUM-2M cells were implanted subcutaneously over the right flank of the mice at 5×10^5 cells/100 μl/mouse. MFM-223 cells were implanted subcutaneously over the right flank of the mice at 5×10^5 cells/100 μl/mouse, and 0.72 mg 90-day release […] estradiol pellets (Innovative Research of America, Sarasota, Fla.) were inoculated subcutaneously into the right flank. Mice were monitored twice weekly following cell implantation for tumor growth. Tumor size was measured according to the formula: Tumor size (mm^3)=([…])/2. When MFM-223 tumors reached 80 mm^3 mice were sorted and randomized (n=10), and treatment was initiated. For OCUM-2M tumors, single therapy with anti-FGFR2b was initiated once tumors reached an average size of 100 mm^3, and combination therapy was initiated once tumors reached an average size of 250 mm^3.
(§6) Chemotherapeutic agents were administered via intraperitoneal injection twice per week at 12 mg/kg for paclitaxel, 2.3 mg/kg for fluorouracil (5-FU), and 33 mg/kg for cisplatin. Upon initiation of therapy, tumor sizes were measured in each mouse twice weekly. The length and width of each tumor was measured using calipers and the tumor size calculated according to the formula above. Mice were euthanized when the subcutaneous tumor volumes exceeded 2000 mm^3 or when the tumors became excessively necrotic.
Comparisons of tumor volume […] determined to be statistically significant if P<0.05. P-values were calculated using unpaired, two-tailed t-test analyses of the calculated tumor volumes on the final day upon which tumors were measured.

[6] = system: FGFR2IIIb-expressing Ba/F3 cells; test: ADCC assay with human PBMC effectors, LDH release (Example 3); assay type: cell-based; conditions: E/T 25:1, 16 hours
Protocol: Ba/F3 FGFR2IIIb-expressing target cells were produced as follows. Ba/F3 cells acquired from Leibniz-Institut DSMZ-Deutsche Sammlung von Mikroorganismen and Zellkulturen GmbH (DSMZ, cat #ACC300, Braunschweig, Germany) were maintained in RPMI (Mediatech, cat #10-041-CV, Manassas, Va.), supplemented with 10% fetal bovine serum (Mediatech, cat #35-010-CV), 1 ng/mL murine IL-3 (Peprotech, cat #213-13, Rocky Hill, N.J.), 1×BME (Invitrogen, cat #1047574, Grand Island, N.Y.), and 1× Penicillin-streptomycin (Mediatech cat #30-002-C1). […]
ADCC assays were conducted using effector cells from 3 independent donors on 3 different days. […] Cytotoxicity was determined by quantifying LDH release as per the manufacturer's instructions (CytoTox Non Radioactive Cytotoxicity Assay, Promega, Madison, Wis.).
as §3

[7] = system: MFM-223 human breast cancer xenograft; test: MFM-223 breast cancer xenograft model; assay type: in vivo, CB17 SCID mice; conditions: 5 mg/kg
From the text: Six week old female CB17 SCID mice were purchased from Charles River Laboratories (Wilmington, Mass.) and were acclimated for 1 week before the start of the study. Human gastric carcinoma cell line OCUM-2M or breast carcinoma cell line MFM-223 were used as the tumor models. OCUM-2M was purchased from Public University Corporation Osaka City University (OCU, Osaka, Japan), and MFM-223 was purchased from Culture Collections, Public Health England (98050130, HPA Culture Collections, Salisbury, UK). The cells were cultured for up to three passages in complete growth medium to expand for implantation. […]
When the cultured cells reached 85-90% confluence, cells were harvested and resuspended in cold Ca^2+ and Mg^2+ free phosphate buffered saline (PBS) containing 50% Matrigel (BD BioSciences, San Jose, Calif.). […] Mice were monitored twice weekly following cell implantation for tumor growth. Tumor size was measured according to the formula: Tumor size (mm^3)=(width (mm)×length (mm)^2)/2. […]
as §6, with “Mice were euthanized when the subcutaneous tumor volumes exceeded 2000 mm^3 or when the tumors became excessively necrotic.” left out

[8] = system: OCUM-2M cells; test: ADCC assay, EC50 by curve fitting (Example 5); assay type: cell-based, human; conditions: E:T 25:1, 16 hours, percent specific lysis
Protocol: as §4, §5

Row | Substance | ADCC activity compared with αFGFR2bF [1] | ADCC activity compared with αFGFR2bF ([2]; E/T 25:1, 16 hours) | maximal specific lysis compared with αFGFR2bF [2] | ADCC activity compared with αFGFR2bF ([3]; E/T 25:1, 16 hours) | maximal specific lysis compared with αFGFR2bF [3] | ADCC potency compared with αFGFR2bF [4] | final tumor size compared with αFGFR2bF ([5]; 3 mg/kg) | tumor growth compared with αFGFR2bF ([5]; 3 mg/kg) | tumor regression and durability compared with αFGFR2bF ([5]; 3 mg/kg) | durability of response compared with αFGFR2bF ([5]; 10 mg/kg) | final tumor size compared with αFGFR2bF ([5]; 10 mg/kg) | tumor response [5] | final tumor size ([5]; 1 to 5 mg/kg, higher doses more potent) | tumor growth suppression ([5]; 2, 1.5, and 1 mg/kg) | tumor growth suppression ([5]; 3 and 5 mg/kg) | tumor growth ([5]; all doses: 1, 1.5, 2, 3, or 5 mg/kg, start at about 100 mm^3) | specific lysis compared with αFGFR2bF [6] | final tumor size compared to albumin control [7] | tumor growth compared to albumin control ([7]; start at about 80 mm^3) | EC50 (ADCC) [8]
1 | αFGFR2bA: afucosylated humanized anti-FGFR2IIIb monoclonal antibody produced in Potelligent CHOK1SV cells; heavy chain SEQ ID NO: 2, light chain SEQ ID NO: 3 | greater ADCC activity at lower concentrations | greater ADCC activity at lower concentrations | comparable | greater ADCC activity at lower concentrations | comparable | higher potency | notably reduced final OCUM-2M tumor size | reduced tumor growth | greater tumor regression and durable response | more durable response | significantly reduced final OCUM-2M tumor size | immediate tumor regression | reduced final OCUM-2M tumor size | reduced growth suppression | greatest suppression and durable response | inhibited tumor growth | greater specific lysis | significantly reduced final MFM-223 tumor size | dramatically reduced growth of MFM-223 tumors | 5 ng/mL
2 | αFGFR2bF: fucosylated anti-FGFR2IIIb humanized antibody with the same amino acid sequences as αFGFR2bA, produced in CHOK1SV cells [reference compound] |  |  |  |  |  |  |  |  |  |  |  | immediate tumor regression |  |  |  |  |  |  |  | 30 ng/mL
